Assay results as given in PubChem BioAssay (NCI).
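Interpolation was linear, between the two tested concentrations surrounding the appropriate level; five concentrations were tested over 48 hours in 96-well plates. The concentration for full growth arrest is given as TGI.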

Key:
Assay in all cases: NCI tumour cell line growth inhibition, 48 h
KM20L2 colon = system: KM20L2 colon
SK-MEL-2 melanoma = system: SK-MEL-2 melanoma
SK-OV-3 ovarian = system: SK-OV-3 ovarian
SNB-19 CNS = system: SNB-19 CNS
HT29 colon = system: HT29 colon
SF-539 CNS = system: SF-539 CNS
CAKI-1 renal = system: CAKI-1 renal
HOP-62 NSCLC = system: HOP-62 NSCLC
KM12 colon = system: KM12 colon
SN12C renal = system: SN12C renal
MOLT-4 leukemia = system: MOLT-4 leukemia
OVCAR-3 ovarian = system: OVCAR-3 ovarian
UACC-257 melanoma = system: UACC-257 melanoma
NCI-H23 lung = system: NCI-H23 lung
EKVX NSCLC = system: EKVX NSCLC
LOX IMVI melanoma = system: LOX IMVI melanoma
CCRF-CEM leukemia = system: CCRF-CEM leukemia
DMS 114 small cell lung = system: DMS 114 small cell lung
SK-MEL-5 melanoma = system: SK-MEL-5 melanoma
MCF7 breast = system: MCF7 breast
OVCAR-8 ovarian = system: OVCAR-8 ovarian
HL-60(TB) leukemia = system: HL-60(TB) leukemia
HCT-116 colon = system: HCT-116 colon
U251 CNS = system: U251 CNS
SNB-75 CNS = system: SNB-75 CNS
K-562 leukemia = system: K-562 leukemia
MALME-3M melanoma = system: MALME-3M melanoma
NCI-H226 lung = system: NCI-H226 lung
DMS 273 small cell lung = system: DMS 273 small cell lung
P388 leukemia = system: P388 leukemia
A549 NSCLC = system: A549 NSCLC
HCC-2998 colon = system: HCC-2998 colon
SK-MEL-28 melanoma = system: SK-MEL-28 melanoma
RPMI-8226 leukemia = system: RPMI-8226 leukemia
NCI-H460 lung = system: NCI-H460 lung
XF 498 CNS = system: XF 498 CNS
SN12K1 renal = system: SN12K1 renal
OVCAR-5 ovarian = system: OVCAR-5 ovarian
HOP-18 NSCLC = system: HOP-18 NSCLC
HCT-15 colon = system: HCT-15 colon
SNB-78 CNS = system: SNB-78 CNS
UO-31 renal = system: UO-31 renal
SF-268 CNS = system: SF-268 CNS
UACC-62 melanoma = system: UACC-62 melanoma
SW-620 colon = system: SW-620 colon
DLD-1 colon = system: DLD-1 colon
A498 renal = system: A498 renal
SF-295 CNS = system: SF-295 CNS
P388/ADR leukemia = system: P388/ADR leukemia
COLO 205 colon = system: COLO 205 colon
RXF 393 renal = system: RXF 393 renal
M19-MEL melanoma = system: M19-MEL melanoma
NCI/ADR-RES ovarian = system: NCI/ADR-RES ovarian
NCI-H522 lung = system: NCI-H522 lung
IGROV1 ovarian = system: IGROV1 ovarian
HOP-92 NSCLC = system: HOP-92 NSCLC

Measured: TGI

Cc1[nH]c(=O)[nH]c(=O)c1/C=C/C(=O)NC(CO)CS(=O)Cc1ccccc1 (stereo unspecified)
> 300 µM: KM20L2 colon | SK-MEL-2 melanoma | SK-OV-3 ovarian | SNB-19 CNS | HT29 colon | SF-539 CNS | CAKI-1 renal | HOP-62 NSCLC | KM12 colon | SN12C renal | MOLT-4 leukemia | OVCAR-3 ovarian | UACC-257 melanoma | NCI-H23 lung | EKVX NSCLC | LOX IMVI melanoma | CCRF-CEM leukemia | DMS 114 small cell lung | SK-MEL-5 melanoma | MCF7 breast | OVCAR-8 ovarian | HL-60(TB) leukemia | HCT-116 colon | U251 CNS | SNB-75 CNS | K-562 leukemia | MALME-3M melanoma | NCI-H226 lung | DMS 273 small cell lung | P388 leukemia | A549 NSCLC | HCC-2998 colon | SK-MEL-28 melanoma | RPMI-8226 leukemia | NCI-H460 lung | XF 498 CNS | SN12K1 renal | OVCAR-5 ovarian | HOP-18 NSCLC | HCT-15 colon | SNB-78 CNS | UO-31 renal | SF-268 CNS | UACC-62 melanoma | SW-620 colon | DLD-1 colon | A498 renal | SF-295 CNS | P388/ADR leukemia | COLO 205 colon | RXF 393 renal | M19-MEL melanoma | NCI/ADR-RES ovarian | NCI-H522 lung | IGROV1 ovarian | HOP-92 NSCLC
